Earlier results, collected in PubChem BioAssay AID1259409 (Chemical Carcinogenesis Research Information System (CCRIS), 2018).

Test system: rodent chemically induced tumor inhibition, incidence and multiplicity
Experiment: CCRIS tumor inhibitor studies

Q: Which results are given for `COc1ccc2[nH]cc(CCNC(C)=O)c2c1`?
A: tumour outcome (control, treated, inhibition, significance) (Carcinogen: 1,2-DIMETHYLHYDRAZINE [540-73-8], Dose [Inhibitor]: 20 UG/ML IN DRINKING WATER 14 HR/D AT NIGHT TIME FOR 6 MONTHS (STUDY DURATION: 6 MONTHS), Route [Inhibitor]: ORAL, Species: RAT, Strain/Sex: LIO/FEMALE, Target Tissue: Type of Lesion: ASCENDING COLON: TUMOR, Dose [Carcinogen]: 21 MG/KG BW 1X/WK FOR 15 WK (STUDY DURATION: 6 MONTHS), Promoter: NONE): 23/25 (92.0%), 15/23 (65.2%), 29%, p<0.01; tumour outcome (control, treated, inhibition, significance) (Carcinogen: 1,2-DIMETHYLHYDRAZINE [540-73-8], Dose [Inhibitor]: 20 UG/ML IN DRINKING WATER 14 HR/D AT NIGHT TIME FOR 6 MONTHS (STUDY DURATION: 6 MONTHS), Route [Inhibitor]: ORAL, Species: RAT, Strain/Sex: LIO/FEMALE, Target Tissue: Type of Lesion: DESCENDING COLON: TUMOR, Dose [Carcinogen]: 21 MG/KG BW 1X/WK FOR 15 WK (STUDY DURATION: 6 MONTHS), Promoter: NONE): 25/25 (100.0%), 23/23 (100.0%), 0%, not significant; tumour outcome (control, treated, inhibition, significance) (Carcinogen: 1,2-DIMETHYLHYDRAZINE [540-73-8], Dose [Inhibitor]: 20 UG/ML IN DRINKING WATER 14 HR/D AT NIGHT TIME FOR 6 MONTHS (STUDY DURATION: 6 MONTHS), Route [Inhibitor]: ORAL, Species: RAT, Strain/Sex: LIO/FEMALE, Target Tissue: Type of Lesion: DUODENUM: TUMOR, Dose [Carcinogen]: 21 MG/KG BW 1X/WK FOR 15 WK (STUDY DURATION: 6 MONTHS), Promoter: NONE): 8/25 (32.0%), 5/23 (21.7%), 32%, not significant; tumour outcome (control, treated, inhibition, significance) (Carcinogen: 1,2-DIMETHYLHYDRAZINE [540-73-8], Dose [Inhibitor]: 20 UG/ML IN DRINKING WATER 14 HR/D AT NIGHT TIME FOR 6 MONTHS (STUDY DURATION: 6 MONTHS), Route [Inhibitor]: ORAL, Species: RAT, Strain/Sex: LIO/FEMALE, Target Tissue: Type of Lesion: JEJUNUM AND ILIUM: TUMOR, Dose [Carcinogen]: 21 MG/KG BW 1X/WK FOR 15 WK (STUDY DURATION: 6 MONTHS), Promoter: NONE): 4/25 (16.0%), 1/23 (4.3%), 73%, p<0.05; tumour outcome (control, treated, inhibition, significance) (Carcinogen: 1,2-DIMETHYLHYDRAZINE [540-73-8], Dose [Inhibitor]: 20 UG/ML IN DRINKING WATER 14 HR/D AT NIGHT TIME FOR 6 MONTHS (STUDY DURATION: 6 MONTHS), Route [Inhibitor]: ORAL, Species: RAT, Strain/Sex: LIO/FEMALE, Target Tissue: Type of Lesion: RECTUM: TUMOR, Dose [Carcinogen]: 21 MG/KG BW 1X/WK FOR 15 WK (STUDY DURATION: 6 MONTHS), Promoter: NONE): 11/25 (44.0%), 11/23 (47.8%), -9%, not significant; tumour outcome (control, treated, inhibition, significance) (Carcinogen: 7, 12-DIMETHYLBENZ(A)ANTHRACENE [57-97-6], Dose [Inhibitor]: 20 UG/ML IN DRINKING WATER, 17 HR/D BEGINNING 5 D BEFORE FIRST CARCINOGEN DOSE FOR 13 WK (STUDY DURATION: 13 WK), Route [Inhibitor]: ORAL, Species: RAT, Strain/Sex: SPRAGUE-DAWLEY/FEMALE, Target Tissue: Type of Lesion: MAMMARY GLAND: TUMOR, Dose [Carcinogen]: 10 MG THREE TIMES BETWEEN POSTNATAL DAYS 45-59): 23/24 (95.8%), 21/28 (75%), 21.5%, p<0.05; tumour outcome (control, treated, inhibition, significance) (Carcinogen: 7,12-DIMETHYLBENZ[A]ANTHRACENE [57-97-6], Dose [Inhibitor]: 10 MG/KG BW DAILY BETWEEN 45 AND 59 D OF AGE, Route [Inhibitor]: INTRAGASTRIC (GAVAGE) IN HYDROXYETHYLCELLULOSE SOLUTION, Species: RAT, Strain/Sex: SPRAGUE-DAWLEY/FEMALE, Target Tissue: Type of Lesion: MAMMARY: ADENOCARCINOMA, Dose [Carcinogen]: 75 MG/KG BW IN SESAME OIL AT 60 D OF AGE (STUDY DURATION: 1 YR)): 75%, 43%, 43%, p=0.04 (at 6 mo); tumour outcome (control, treated, inhibition, significance) (Carcinogen: 7,12-DIMETHYLBENZ[A]ANTHRACENE [57-97-6], Dose [Inhibitor]: 10 MG/KG BW DAILY FOR 6 MO AFTER CARCINOGEN ADMINISTRATION, Route [Inhibitor]: INTRAGASTRIC (GAVAGE), Species: RAT, Strain/Sex: SPRAGUE-DAWLEY/FEMALE, Target Tissue: Type of Lesion: MAMMARY: ADENOCARCINOMA, Dose [Carcinogen]: 75 MG/KG BW AT 55 D OF AGE (STUDY DURATION: 1 YR)): 75%, 35%, 53%, p=0.01 (at 6 mo); tumour outcome (control, treated, inhibition, significance) (Carcinogen: 7,12-DIMETHYLBENZ[A]ANTHRACENE [57-97-6], Dose [Inhibitor]: 20 UG/ML IN DRINKING WATER 15 HR/D FOR 4 MONTHS BEGINNING AT THE TIME OF THE FIRST CARCINOGEN DOSE (STUDY DURATION: 6 MO, Route [Inhibitor]: ORAL, Species: MOUSE, Strain/Sex: CBA/FEMALE, Target Tissue: Type of Lesion: VAGINA AND CERVIX: TUMOR, Dose [Carcinogen]: 0.1% IN TRIETHYLENEGLYCOL IN A POLYURETHANE SPONGE 3 HR/D 2 D/WK FOR 2 MONTHS (STUDY DURATION: 6 MO), Promoter: NONE): 7/20 (35%), 3/20 (15%), 57%, not significant; tumour outcome (control, treated, inhibition, significance) (Carcinogen: 7,12-DIMETHYLBENZ[A]ANTHRACENE, 57-97-6, Dose [Inhibitor]: 0, 20 UG/ML IN DRINKING WATER 17 HR/D 4 D/WK FOR 26 WK BEGINNING 45 D OF AGE (STUDY DURATION: 26 WK), Route [Inhibitor]: ORAL, Species: RAT, Strain/Sex: SD/FEMALE, Target Tissue: Type of Lesion: MAMMARY GLAND: TUMOR, Dose [Carcinogen]: 10 UG/ANIMAL IN CORN OIL INTRAGASTRICALLY ON 45, 50, 55 D OF AGE): 100%, 42%, 58%, p<0.001; tumour outcome (control, treated, inhibition, significance) (Carcinogen: 7,12-DIMETHYLBENZ[A]ANTHRACENE, 57-97-6, Dose [Inhibitor]: 0, 20 UG/ML IN DRINKING WATER FOR 17 HR/D FOR THE DURATION OF STUDY (STUDY DURATION: 180 D), Route [Inhibitor]: ORAL, Species: RAT, Strain/Sex: SPRAGUE-DAWLEY/FEMALE, Target Tissue: Type of Lesion: MAMMARY GLAND: TUMOR, Dose [Carcinogen]: 20 MG/ANIMAL GAVAGE ONCE 10 D POST INHIBITOR TREATMENT (STUDY DURATION: 178 D), Promoter: NONE): 16/24 (66.6%), 15/25 (60.0%), 10%, not significant; tumour outcome (control, treated, inhibition, significance) (Carcinogen: GAMMA RAYS: 7,12-DIMETHYLBENZ[A]ANTHRACENE [57-97-6], Dose [Inhibitor]: 0, 100 UG/ML IN DRINKING WATER FOR 28 WK (STUDY DURATION: 28 WK), Route [Inhibitor]: ORAL, Species: RAT, Strain/Sex: WISTAR: HAN/FEMALE, Target Tissue: Type of Lesion: MAMMARY GLAND: TUMOR, Dose [Carcinogen]: 96 MGY FORM CO-60 SOURCE FOR 2 WK (TOTAL ACCUMULATED DOSE 1.44 GY), THEN 3 DOSES OF 10 MG DMBA BY GAVAGE (STUDY DURATION, Promoter: NONE): 48.3%, 50.0%, -3.5%, not significant
